Assay results published in ChEMBL document CHEMBL1143186, “Total synthesis and evaluation of [18F]MHMZ” (Bioorg Med Chem Lett, 2008).

Legend:
[1] = Metabolic stability in rat plasma assessed as unmetabolized fraction after 10 mins; assay type: ADME, cell-free; settings: read-out: Stability
[2] = Metabolic stability in rat plasma assessed as unmetabolized fraction after 5 mins; assay type: ADME, cell-free; settings: read-out: Stability
[3] = tested on: Nucleic Acid; test: Ratio of drug level in laminae 6a + 6b region to cerebellum in rat; assay type: ADME, tissue-based; settings: in vitro
[4] = tested on: Nucleic Acid; test: Ratio of drug level in laminae 1-4 region to cerebellum in rat; assay type: ADME, tissue-based; settings: in vivo
[5] = tested on: Caudate-putamen; test: Drug level in rat brain caudate-putamen; assay type: ADME, tissue-based; settings: in vivo
[6] = tested on: Brain; test: Drug level in rat brain laminae 1-4 region; assay type: ADME, tissue-based; settings: in vivo
[7] = tested on: Laminae; test: Drug level in rat brain laminae 6a + 6b region; assay type: ADME, tissue-based; settings: in vivo
[8] = tested on: Brain; test: Drug level in rat brain lamina 5 region; assay type: ADME, tissue-based; settings: in vivo
[9] = Metabolic stability in rat plasma assessed as unmetabolized fraction after 60 mins; assay type: ADME, cell-free; settings: read-out: Stability
[10] = tested on: Nucleic Acid; test: Ratio of drug level in caudate-putamen to cerebellum in rat; assay type: ADME, tissue-based; settings: in vitro
[11] = tested on: Nucleic Acid; test: Ratio of drug level in lamina 5 region to cerebellum in rat; assay type: ADME, tissue-based; settings: in vivo
[12] = Metabolic stability in rat plasma assessed as unmetabolized fraction after 30 mins; assay type: ADME, cell-free; settings: read-out: Stability
[13] = target: 5-hydroxytryptamine receptor 2A (Rattus norvegicus, UniProt P14842); test: Displacement of [3H]MDL from rat 5HT2A receptor expressed in GF62 cells; assay type: cell-based
[14] = target: 5-hydroxytryptamine receptor 2A (Homo sapiens, UniProt P28223); test: Binding affinity to 5HT2A receptor
Chain of 5-hydroxytryptamine receptor 2A (Homo sapiens, UniProt P28223) (P28223 whole entry): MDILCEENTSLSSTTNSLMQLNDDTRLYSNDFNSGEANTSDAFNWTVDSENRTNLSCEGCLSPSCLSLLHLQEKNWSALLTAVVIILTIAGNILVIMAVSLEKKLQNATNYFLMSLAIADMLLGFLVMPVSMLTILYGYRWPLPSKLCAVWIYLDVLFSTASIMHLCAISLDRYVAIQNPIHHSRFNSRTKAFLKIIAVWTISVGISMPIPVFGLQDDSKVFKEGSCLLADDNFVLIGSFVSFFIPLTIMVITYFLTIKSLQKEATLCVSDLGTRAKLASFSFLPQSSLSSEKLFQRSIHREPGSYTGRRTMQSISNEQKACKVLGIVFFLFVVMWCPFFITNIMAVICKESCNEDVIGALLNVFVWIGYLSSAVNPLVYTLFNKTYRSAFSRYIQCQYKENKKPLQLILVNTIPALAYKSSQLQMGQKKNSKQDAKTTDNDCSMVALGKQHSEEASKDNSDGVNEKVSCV

Chain of 5-hydroxytryptamine receptor 2A (Rattus norvegicus, UniProt P14842) (P14842 whole entry): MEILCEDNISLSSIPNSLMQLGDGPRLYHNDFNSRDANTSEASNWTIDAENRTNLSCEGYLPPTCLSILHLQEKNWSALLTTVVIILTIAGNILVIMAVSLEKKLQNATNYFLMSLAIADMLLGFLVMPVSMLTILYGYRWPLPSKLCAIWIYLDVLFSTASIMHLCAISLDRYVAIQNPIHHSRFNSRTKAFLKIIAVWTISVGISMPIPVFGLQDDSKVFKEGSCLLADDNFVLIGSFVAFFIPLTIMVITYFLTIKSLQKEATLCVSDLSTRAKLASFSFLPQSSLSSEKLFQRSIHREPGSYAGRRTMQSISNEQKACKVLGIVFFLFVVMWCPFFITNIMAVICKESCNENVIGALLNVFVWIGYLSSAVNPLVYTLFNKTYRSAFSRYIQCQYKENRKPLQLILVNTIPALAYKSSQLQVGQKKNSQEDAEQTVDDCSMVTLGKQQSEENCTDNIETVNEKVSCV

remaining at 10 min [1] | remaining at 5 min [2] | Ratio [3] | Ratio [4] | Drug uptake [5] | Drug uptake [6] | Drug uptake [7] | Drug uptake [8] | remaining at 1 h [9] | Ratio [10] | Ratio [11] | remaining at 0.5 h [12] | Ki [13] | Ki [14] | SMILES
32% | 43% | 31.4 | 26.9 | 16.8 pmol/mm3 | 23.3 pmol/mm3 | 27.27 pmol/mm3 | 51.6 pmol/mm3 | 7% | 19.2 | 59.5 | 16% |  |  | COc1c(OCC[18F])cccc1C(O)C1CCN(CCc2ccc(F)cc2)CC1 (stereo not given)
 |  |  |  |  |  |  |  |  |  |  |  | 9 nM |  | COc1c(OCCF)cccc1C(O)C1CCN(CCc2ccc(F)cc2)CC1 (stereo not given)
 |  |  |  |  |  |  |  |  |  |  |  | 0.74 nM | 0.13 nM | O=C(c1ccc(F)cc1)C1CCN(CCn2c(=S)[nH]c3ccccc3c2=O)CC1 [ALTANSERIN]
